Results reported in ChEMBL document CHEMBL4020826 (J Med Chem, 2018).

Tests used:
[1] = Plasma concentration in Sprague-Dawley rat at 10 mg/kg, sc administered as single dose measured after 1 hr post dose by LC-MS/MS analysis; type: ADME, organism-based
[2] = Plasma concentration in Sprague-Dawley rat at 3 mg/kg, sc administered as single dose measured after 1 hr post dose by LC-MS/MS analysis; type: ADME, organism-based
[3] = Plasma concentration in Sprague-Dawley rat at 1 mg/kg, sc administered as single dose measured after 1 hr post dose by LC-MS/MS analysis; type: ADME, organism-based
[4] = molecular target: T1, Metabotropic glutamate receptor 2 (Homo sapiens, UniProt Q14416); experiment: Displacement of [3H]-LY459477 from recombinant human mGlu2 receptor expressed in HEK cell membranes after 90 mins by liquid scintillation counting
[5] = molecular target: T1, Metabotropic glutamate receptor 2; experiment: Agonist activity at human mGlu2 receptor expressed in HEK cells assessed as inhibition of forskolin-stimulated cAMP formation after 20 mins by HTRF assay; type: functional, cell-based
[6] = molecular target: Metabotropic glutamate receptor 1 (Homo sapiens, UniProt Q13255); experiment: Agonist activity at recombinant human mGlu1 receptor expressed in hamster AV12 cells co-expressing rat EAAT1/Galpha15 assessed as induction of increase in Ca2+ flux after 2.5 mins by Fluo-3 AM dye-based FLIPR assay; type: functional, cell-based
[7] = molecular target: Metabotropic glutamate receptor 5 (Homo sapiens, UniProt P41594); experiment: Antagonist activity at recombinant human mGlu5 receptor expressed in hamster AV12 cells co-expressing rat EAAT1/Galpha15 assessed as inhibition of glutamate induced increase in Ca2+ flux after 2.5 mins by Fluo-3 AM dye-based FLIPR assay; type: functional, cell-based
[8] = molecular target: Metabotropic glutamate receptor 6 (Homo sapiens, UniProt O15303); experiment: Agonist activity at human mGlu6 receptor expressed in hamster AV12 cells co-expressing rat EAAT1 assessed as inhibition of forskolin-stimulated cAMP formation after 20 mins by HTRF assay; type: functional, cell-based
[9] = molecular target: Metabotropic glutamate receptor 7 (Homo sapiens, UniProt Q14831); experiment: Antagonist activity at recombinant human mGlu7 receptor expressed in hamster AV12 cells co-expressing rat EAAT1/Galpha15 assessed as inhibition of glutamate induced increase in Ca2+ flux after 2.5 mins by Fluo-3 AM dye-based FLIPR assay; type: functional, cell-based
[10] = molecular target: Voltage-gated inwardly rectifying potassium channel KCNH2 (Homo sapiens, UniProt Q12809); experiment: Displacement of [3H]-dofetilide from human ERG
[11] = molecular target: Group II metabotropic glutamate receptor (mGlu2/mGlu3) (Rattus norvegicus, UniProt P31421+P31422); experiment: Displacement of [3H]-LY459477 from mGlu2/3 receptor in Sprague-Dawley rat forebrain primary cortical membranes after 90 mins by liquid scintillation counting
[12] = Drug metabolism in rat liver microsomes at 4 uM; type: ADME, microsome; conditions: read-out: Drug metabolism
[13] = Drug metabolism in human liver microsomes at 4 uM; type: ADME, microsome; conditions: read-out: Drug metabolism
CYP3A4 = CYP3A4 (Homo sapiens, UniProt P08684); experiment: Inhibition of human CYP3A4 at 10 uM; type: ADME
CYP2D6 = CYP2D6 (Homo sapiens, UniProt P10635); experiment: Inhibition of human CYP2D6 at 10 uM; type: ADME
CYP2C9 = CYP2C9 (Homo sapiens, UniProt P11712); experiment: Inhibition of human CYP2C9 at 10 uM; type: ADME
[14] = Fraction unbound in rat brain; type: ADME, tissue-based
[15] = Clearance in Sprague-Dawley rat at 1 mg/kg, iv measured over 8 hrs by LC-MS/MS analysis; type: ADME, organism-based; conditions: in vivo
[16] = Volume of distribution at steady state in Sprague-Dawley rat at 1 mg/kg, iv measured over 8 hrs by LC-MS/MS analysis; type: ADME, organism-based; conditions: in vivo, read-out: Vdss
[17] = AUC in Sprague-Dawley rat at 3 mg/kg, sc measured over 8 hrs by LC-MS/MS analysis; type: ADME, organism-based; parameters: dose 3 mg/kg, time < 8 hr, route subcutaneous; conditions: in vivo
[18] = Drug level in Sprague-Dawley rat CSF at 0.1 mg/kg, sc administered as single dose measured after 1 hr post dose by LC-MS/MS analysis; type: ADME, organism-based, Cerebrospinal fluid; conditions: read-out: Drug uptake
[19] = Drug level in Sprague-Dawley rat CSF at 3 mg/kg, sc administered as single dose measured after 1 hr post dose by LC-MS/MS analysis; type: ADME, organism-based, Cerebrospinal fluid; conditions: read-out: Drug uptake
[20] = Drug level in Sprague-Dawley rat CSF at 10 mg/kg, sc administered as single dose measured after 1 hr post dose by LC-MS/MS analysis; type: ADME, organism-based, Cerebrospinal fluid; conditions: read-out: Drug uptake
[21] = Plasma concentration in Sprague-Dawley rat at 1.5 mg/kg/day, sc administered via infusion measured after 6 hrs post dose by LC-MS/MS analysis; type: ADME, organism-based
[22] = Plasma concentration in Sprague-Dawley rat at 5 mg/kg/day, sc administered via infusion measured after 6 hrs post dose by LC-MS/MS analysis; type: ADME, organism-based
[23] = Plasma concentration in Sprague-Dawley rat at 0.5 mg/kg/day, sc administered via infusion measured after 12 hrs post dose by LC-MS/MS analysis; type: ADME, organism-based
[24] = Plasma concentration in Sprague-Dawley rat at 1.5 mg/kg/day, sc administered via infusion measured after 12 hrs post dose by LC-MS/MS analysis; type: ADME, organism-based
[25] = Plasma concentration in Sprague-Dawley rat at 5 mg/kg/day, sc administered via infusion measured after 12 hrs post dose by LC-MS/MS analysis; type: ADME, organism-based
[26] = Plasma concentration in Sprague-Dawley rat at 0.5 mg/kg/day, sc administered via infusion measured after 24 hrs post dose by LC-MS/MS analysis; type: ADME, organism-based
[27] = Plasma concentration in Sprague-Dawley rat at 15 mg/kg/day, sc administered via infusion measured after 24 hrs post dose by LC-MS/MS analysis; type: ADME, organism-based
[28] = Plasma concentration in Sprague-Dawley rat at 1.5 mg/kg/day, sc administered via infusion measured after 48 hrs post dose by LC-MS/MS analysis; type: ADME, organism-based
[29] = Plasma concentration in Sprague-Dawley rat at 5 mg/kg/day, sc administered via infusion measured after 48 hrs post dose by LC-MS/MS analysis; type: ADME, organism-based
[30] = Plasma concentration in Sprague-Dawley rat at 5 mg/kg/day, sc administered via infusion measured after 72 hrs post dose by LC-MS/MS analysis; type: ADME, organism-based
[31] = Plasma concentration in Sprague-Dawley rat at 15 mg/kg/day, sc administered via infusion measured after 72 hrs post dose by LC-MS/MS analysis; type: ADME, organism-based
[32] = Drug level in Sprague-Dawley rat CSF at 1.5 mg/kg/day, sc administered via infusion measured after 72 hrs post dose by LC-MS/MS analysis; type: ADME, organism-based, Cerebrospinal fluid; conditions: read-out: Drug uptake
[33] = Drug level in Sprague-Dawley rat CSF at 5 mg/kg/day, sc administered via infusion measured after 72 hrs post dose by LC-MS/MS analysis; type: ADME, organism-based, Cerebrospinal fluid; conditions: read-out: Drug uptake
[34] = molecular target: Group II metabotropic glutamate receptor (mGlu2/mGlu3) (Rattus norvegicus) (UniProt P31421+P31422); conditions: Sprague-Dawley
Sequence of Group II metabotropic glutamate receptor (mGlu2/mGlu3) (Rattus norvegicus) (P31421 whole entry, looked up): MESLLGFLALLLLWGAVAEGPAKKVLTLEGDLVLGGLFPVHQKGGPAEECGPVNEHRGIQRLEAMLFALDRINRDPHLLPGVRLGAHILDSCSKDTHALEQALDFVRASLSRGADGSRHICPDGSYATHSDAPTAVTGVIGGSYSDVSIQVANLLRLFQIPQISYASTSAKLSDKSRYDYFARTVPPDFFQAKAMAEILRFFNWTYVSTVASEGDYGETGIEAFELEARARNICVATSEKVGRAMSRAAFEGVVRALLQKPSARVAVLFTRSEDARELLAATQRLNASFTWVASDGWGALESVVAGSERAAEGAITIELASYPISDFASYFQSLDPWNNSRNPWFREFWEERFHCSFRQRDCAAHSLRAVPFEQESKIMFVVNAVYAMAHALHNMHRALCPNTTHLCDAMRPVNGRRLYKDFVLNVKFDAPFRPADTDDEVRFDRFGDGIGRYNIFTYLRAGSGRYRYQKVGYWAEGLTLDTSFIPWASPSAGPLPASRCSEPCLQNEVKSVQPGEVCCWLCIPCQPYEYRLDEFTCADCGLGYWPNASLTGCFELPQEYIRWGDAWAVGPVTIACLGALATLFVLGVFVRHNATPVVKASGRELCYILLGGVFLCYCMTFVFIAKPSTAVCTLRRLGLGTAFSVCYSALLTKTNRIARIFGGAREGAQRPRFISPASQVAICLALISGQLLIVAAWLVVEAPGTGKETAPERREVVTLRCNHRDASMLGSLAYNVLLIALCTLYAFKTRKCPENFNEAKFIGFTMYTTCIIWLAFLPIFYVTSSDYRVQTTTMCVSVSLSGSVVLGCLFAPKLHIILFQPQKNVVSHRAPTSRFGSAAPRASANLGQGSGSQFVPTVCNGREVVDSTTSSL
Sequence of Group II metabotropic glutamate receptor (mGlu2/mGlu3) (Rattus norvegicus) (P31422 whole entry, looked up): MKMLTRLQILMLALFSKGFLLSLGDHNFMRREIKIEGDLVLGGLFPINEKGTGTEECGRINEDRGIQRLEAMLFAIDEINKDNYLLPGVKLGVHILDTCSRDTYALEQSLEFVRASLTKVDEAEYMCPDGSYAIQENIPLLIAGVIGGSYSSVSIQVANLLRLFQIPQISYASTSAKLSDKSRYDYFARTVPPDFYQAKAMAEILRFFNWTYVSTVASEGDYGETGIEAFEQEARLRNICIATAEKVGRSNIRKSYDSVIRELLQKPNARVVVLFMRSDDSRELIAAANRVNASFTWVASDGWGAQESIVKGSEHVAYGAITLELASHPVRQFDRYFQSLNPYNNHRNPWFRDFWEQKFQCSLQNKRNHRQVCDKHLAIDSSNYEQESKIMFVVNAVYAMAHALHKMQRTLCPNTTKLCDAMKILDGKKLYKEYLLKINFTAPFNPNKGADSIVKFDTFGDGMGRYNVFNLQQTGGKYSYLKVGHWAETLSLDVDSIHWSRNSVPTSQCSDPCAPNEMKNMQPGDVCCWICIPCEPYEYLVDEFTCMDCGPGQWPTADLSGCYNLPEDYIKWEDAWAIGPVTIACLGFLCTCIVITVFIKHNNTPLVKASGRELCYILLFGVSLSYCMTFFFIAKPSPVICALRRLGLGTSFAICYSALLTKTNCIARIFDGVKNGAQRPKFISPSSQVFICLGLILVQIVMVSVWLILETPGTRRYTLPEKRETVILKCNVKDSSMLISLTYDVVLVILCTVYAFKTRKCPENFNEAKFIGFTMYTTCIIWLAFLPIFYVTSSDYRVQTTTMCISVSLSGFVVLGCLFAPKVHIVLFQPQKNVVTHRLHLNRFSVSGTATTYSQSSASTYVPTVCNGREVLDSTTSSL
Description: Agonist activity at mGlu2/3 receptor in Sprague-Dawley rat forebrain assessed as inhibition of spontaneous Ca2+ oscillations in cortical neurons after 300 secs by FLIPR assay

T1 sequence (Q14416 whole entry): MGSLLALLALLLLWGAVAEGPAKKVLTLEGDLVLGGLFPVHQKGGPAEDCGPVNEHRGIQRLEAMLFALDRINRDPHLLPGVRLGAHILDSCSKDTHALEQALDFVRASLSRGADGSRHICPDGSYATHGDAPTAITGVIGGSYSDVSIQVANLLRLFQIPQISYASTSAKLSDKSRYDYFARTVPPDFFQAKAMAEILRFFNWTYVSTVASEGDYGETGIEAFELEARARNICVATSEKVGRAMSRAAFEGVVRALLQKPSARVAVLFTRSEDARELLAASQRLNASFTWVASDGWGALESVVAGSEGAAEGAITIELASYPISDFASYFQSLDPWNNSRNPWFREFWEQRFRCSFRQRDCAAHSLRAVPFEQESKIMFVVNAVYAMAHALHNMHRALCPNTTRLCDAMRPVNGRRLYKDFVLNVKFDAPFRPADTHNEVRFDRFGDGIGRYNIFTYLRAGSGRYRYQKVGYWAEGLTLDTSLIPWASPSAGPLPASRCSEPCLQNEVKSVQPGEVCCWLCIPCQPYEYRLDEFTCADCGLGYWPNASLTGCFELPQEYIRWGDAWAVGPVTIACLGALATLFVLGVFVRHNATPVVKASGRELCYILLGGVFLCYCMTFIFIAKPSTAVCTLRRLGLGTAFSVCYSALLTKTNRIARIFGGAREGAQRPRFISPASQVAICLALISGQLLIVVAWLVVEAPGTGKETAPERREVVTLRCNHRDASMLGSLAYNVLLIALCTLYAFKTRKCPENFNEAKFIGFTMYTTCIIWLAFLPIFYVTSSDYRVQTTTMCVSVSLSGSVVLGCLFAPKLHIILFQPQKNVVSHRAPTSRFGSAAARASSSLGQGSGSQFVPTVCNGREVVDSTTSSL
Sequence of CYP2C9 (P11712 whole entry): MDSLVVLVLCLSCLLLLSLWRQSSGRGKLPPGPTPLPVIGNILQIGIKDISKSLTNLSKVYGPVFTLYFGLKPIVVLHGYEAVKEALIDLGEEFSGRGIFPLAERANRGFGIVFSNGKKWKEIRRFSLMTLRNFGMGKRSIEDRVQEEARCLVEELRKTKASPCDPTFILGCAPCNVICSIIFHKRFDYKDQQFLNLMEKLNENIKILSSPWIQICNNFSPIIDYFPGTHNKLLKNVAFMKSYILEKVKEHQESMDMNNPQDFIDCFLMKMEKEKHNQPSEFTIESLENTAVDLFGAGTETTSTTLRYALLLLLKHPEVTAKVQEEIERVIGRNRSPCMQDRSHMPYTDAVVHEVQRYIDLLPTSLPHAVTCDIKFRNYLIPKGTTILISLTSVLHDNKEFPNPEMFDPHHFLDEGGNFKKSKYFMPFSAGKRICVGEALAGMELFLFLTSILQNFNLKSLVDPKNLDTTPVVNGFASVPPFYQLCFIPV
Sequence of CYP3A4 (P08684 whole entry): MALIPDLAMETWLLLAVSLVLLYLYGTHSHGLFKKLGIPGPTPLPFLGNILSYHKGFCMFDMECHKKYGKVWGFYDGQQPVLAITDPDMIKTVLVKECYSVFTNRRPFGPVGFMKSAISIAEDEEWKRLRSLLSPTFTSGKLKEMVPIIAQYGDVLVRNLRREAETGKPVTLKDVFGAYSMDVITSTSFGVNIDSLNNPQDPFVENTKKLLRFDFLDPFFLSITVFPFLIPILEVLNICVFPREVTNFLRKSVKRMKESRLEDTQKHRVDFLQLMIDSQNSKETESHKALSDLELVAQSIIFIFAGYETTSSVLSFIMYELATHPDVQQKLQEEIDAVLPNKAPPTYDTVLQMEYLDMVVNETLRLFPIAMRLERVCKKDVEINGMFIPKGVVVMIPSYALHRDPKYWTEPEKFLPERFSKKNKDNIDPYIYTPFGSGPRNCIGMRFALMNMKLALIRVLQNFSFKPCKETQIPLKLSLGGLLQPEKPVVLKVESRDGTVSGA
Sequence of Metabotropic glutamate receptor 5 (P41594 whole entry): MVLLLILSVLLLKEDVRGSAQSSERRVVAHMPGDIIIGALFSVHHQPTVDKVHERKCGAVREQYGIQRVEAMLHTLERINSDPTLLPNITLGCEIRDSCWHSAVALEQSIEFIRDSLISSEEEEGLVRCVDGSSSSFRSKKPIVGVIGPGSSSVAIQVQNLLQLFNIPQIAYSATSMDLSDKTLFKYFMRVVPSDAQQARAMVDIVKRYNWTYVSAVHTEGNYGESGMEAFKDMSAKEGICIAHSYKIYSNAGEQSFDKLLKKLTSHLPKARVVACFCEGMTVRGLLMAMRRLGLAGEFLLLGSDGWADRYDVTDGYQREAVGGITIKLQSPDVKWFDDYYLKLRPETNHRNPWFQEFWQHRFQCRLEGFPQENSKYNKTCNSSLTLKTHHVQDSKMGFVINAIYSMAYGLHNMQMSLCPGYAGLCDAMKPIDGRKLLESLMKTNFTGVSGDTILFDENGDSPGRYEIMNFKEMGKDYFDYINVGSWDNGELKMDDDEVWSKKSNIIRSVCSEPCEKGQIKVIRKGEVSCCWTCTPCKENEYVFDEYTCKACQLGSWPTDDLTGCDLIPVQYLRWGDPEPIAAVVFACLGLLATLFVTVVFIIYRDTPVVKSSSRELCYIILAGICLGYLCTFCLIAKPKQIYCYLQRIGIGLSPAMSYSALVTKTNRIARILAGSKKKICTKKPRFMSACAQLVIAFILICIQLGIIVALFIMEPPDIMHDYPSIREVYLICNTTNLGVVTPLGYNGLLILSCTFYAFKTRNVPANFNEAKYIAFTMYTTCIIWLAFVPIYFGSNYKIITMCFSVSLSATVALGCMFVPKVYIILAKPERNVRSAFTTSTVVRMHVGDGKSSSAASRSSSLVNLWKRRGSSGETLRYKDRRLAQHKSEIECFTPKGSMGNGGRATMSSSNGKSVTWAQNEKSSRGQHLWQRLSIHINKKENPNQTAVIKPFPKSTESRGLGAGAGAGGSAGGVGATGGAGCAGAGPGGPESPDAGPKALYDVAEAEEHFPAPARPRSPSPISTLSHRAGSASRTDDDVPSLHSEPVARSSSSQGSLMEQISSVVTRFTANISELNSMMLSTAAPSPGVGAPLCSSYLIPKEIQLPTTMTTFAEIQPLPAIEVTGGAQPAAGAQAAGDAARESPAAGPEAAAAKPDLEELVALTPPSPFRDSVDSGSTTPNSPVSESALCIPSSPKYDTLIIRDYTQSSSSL

Compound: COc1cccc(C(=O)N[C@H]2C[C@@](N)(C(=O)O)[C@@H]3[C@@H](C(=O)O)[C@@H]32)c1
- concentration at 1 h [1]: 25900 nM
- concentration at 1 h [2]: 7180 nM
- concentration at 1 h [3]: 1510 to 1580 nM
- Ki [4]: 412 nM
- EC50 [5]: 47.5 nM
- EC50 [6]: > 25000 nM
- IC50 [7]: > 12500 nM
- EC50 [8]: 1950 nM
- IC50 [9]: > 12500 nM
- inhibition (INH) [10]: Not Active
- Ki [11]: 106 nM
- metabolised at 4 µM [12]: 23%
- metabolised at 4 µM [13]: 12.3%
- inhibition at 10 µM (CYP3A4): 3.6%
- inhibition at 10 µM (CYP2D6): 0%
- inhibition at 10 µM (CYP2C9): 3.5%
- fraction unbound [14]: 1
- clearance [15]: 18.3 mL/min/kg
- Vd [16]: 1.17 L/kg
- AUC at 8 h [17]: 9.88 µM·h
- concentration at 1 h [18]: 2.48 nM
- concentration at 1 h [19]: 73.6 nM
- concentration at 1 h [20]: 249 nM
- concentration at 6 h [21]: 427 nM
- concentration at 6 h [22]: 1280 nM
- concentration at 12 h [23]: 143 nM
- concentration at 12 h [24]: 389 nM
- concentration at 12 h [25]: 1260 nM
- concentration at 24 h [26]: 124 nM
- concentration at 24 h [27]: 3170 nM
- concentration at 48 h [28]: 224 nM
- concentration at 48 h [29]: 871 nM
- concentration at 72 h [30]: 1310 nM
- concentration at 72 h [31]: 3210 nM
- concentration at 72 h [32]: 7.5 nM
- concentration at 72 h [33]: 25.2 nM
- EC50H [34]: 0.44 nM
- EC50L [34]: 43.6 nM
